A short description of data set [1]: Hemolytic activity in human RBC assessed as hemolysis incubated for 1 hr by microplate reader. Particulars: erythrocyte, 1 h. Type of data set: toxicity, cell-based, Erythrocyte.
Data set [2] concerns Klebsiella pneumoniae. Kind of data set: Antibacterial activity against Klebsiella pneumoniae ATCC 13883 assessed as inhibition of bacterial growth measured after 24 hrs by broth microdilution method. Type of data set: functional. Background: In broth dilution the organism is exposed to a series of concentrations in liquid medium.
Data set [3] deals with Pseudomonas aeruginosa. Kind of data set: Antibacterial activity against Pseudomonas aeruginosa PAO1 assessed as inhibition of bacterial growth measured after 24 hrs by broth microdilution method. Type of data set: functional.
The subject of data set [4] is Staphylococcus aureus. Kind of data set: Antibacterial activity against Staphylococcus aureus ATCC 25923 assessed as inhibition of bacterial growth measured after 24 hrs by broth microdilution method. Type of data set: functional.
The subject of data set [5] is Acinetobacter baumannii. Kind of data set: Antibacterial activity against Pandrug-resistant Acinetobacter baumannii assessed as inhibition of bacterial growth measured after 24 hrs by broth microdilution method. Format: functional.
Data set [6] has as its system Shigella flexneri. Put plainly: Antibacterial activity against Shigella flexneri 301 assessed as inhibition of bacterial growth measured after 24 hrs by broth microdilution method. Format: functional.
The subject of data set [7] is Klebsiella pneumoniae. Put plainly: Antibacterial activity against Carbapenem-resistant Klebsiella pneumoniae assessed as inhibition of bacterial growth measured after 24 hrs by broth microdilution method. Format: functional.
Data set [8] concerns Salmonella typhimurium. Kind of data set: Antibacterial activity against Salmonella typhimurium assessed as inhibition of bacterial growth measured after 24 hrs by broth microdilution method. Type of data set: functional, Salmonella enterica subsp. enterica serovar Typhimurium. Particulars: Salmonella enterica.
The test system of data set [9] is Pseudomonas aeruginosa. Put plainly: Antibacterial activity against Pandrug-resistant Pseudomonas aeruginosa assessed as inhibition of bacterial growth measured after 24 hrs by broth microdilution method. Type of data set: functional.
In data set [10] the test system is Pseudomonas aeruginosa. Put plainly: Antibacterial activity against Carbapenem-resistant Pseudomonas aeruginosa assessed as inhibition of bacterial growth measured after 24 hrs by broth microdilution method. Type of data set: functional.

The structures appear in SMILES notation. In brackets after ≈: the same amount, converted by molar mass. Numbered stars: 1 amine (or outer) side, 2 acyl side, 3 side chain; on linkers, the order of the positions; unused ones are H or OH. Bridge positions count the residues as written; N and C are the ends. Square brackets hold non-standard residues; d marks the D form. Peptide text beside a SMILES is read from it. ξ: configuration not given here. ξαMeNle(6-ylidene) = CC(CCCC=[*:3])(N[*:1])C(=O)[*:2]; S5 = C=CCCC[C@](C)(N)C(=O)O

Turning to `CC[C@H](C)[C@H](NC(=O)CNC(=O)[C@H](CC(=O)O)NC(=O)[C@H](CCCNC(=N)N)NC(=O)[C@@H](NC(=O)[C@H](CC(N)=O)NC(=O)[C@H](CCC(N)=O)NC(=O)CNC(=O)[C@@H](NC(=O)[C@H](CCCCN)NC(=O)[C@H](CCC(=O)O)NC(=O)[C@@H](NC(=O)[C@H](CCCCN)NC(=O)[C@H](CCCCN)NC(=O)[C@H](Cc1ccccc1)NC(=O)[C@H](CC(C)C)NC(=O)[C@H](CCCCN)NC(=O)[C@H](Cc1c[nH]c2ccccc12)NC(=O)[C@H](CCCCN)NC(C)=O)[C@@H](C)CC)C(C)C)[C@@H](C)CC)C(=O)N[C@H](C(=O)N[C@@H](CCCCN)C(=O)N[C@@H](C)C(=O)NCC(=O)N1CCC[C@H]1C(=O)N[C@@H](C)C(=O)N[C@H](C(=O)N[C@@H](C)C(=O)N[C@H](C(=O)N[C@H](C(=O)NCC(=O)N[C@@]1(C)CCC/C=C\CCC[C@@](C)(C(=O)N[C@@H](C)C(=O)N[C@@H](CCCCN)C(N)=O)NC(=O)[C@H](CCC(N)=O)NC(=O)[C@H]([C@@H](C)O)NC(=O)[C@H](C)NC1=O)C(C)C)C(C)C)C(C)C)[C@@H](C)CC` (Ac-KWKLFKKIEKVGQNIRDGIIKAGPAVAVVG[S5]ATQ[S5]AK-NH2; staple (Z) 31-35), in data set [1], the Activity entry is “Non-toxic”. The MIC in data set [2] worked out at 12.5 µM (≈ 50.7 µg/mL); in [3], 12.5 µM (≈ 50.7 µg/mL); in [4], 3.13 µM (≈ 12.7 µg/mL).

Regarding `CC[C@H](C)[C@H](NC(=O)CNC(=O)[C@H](CC(=O)O)NC(=O)[C@H](CCCNC(=N)N)NC(=O)[C@@H](NC(=O)[C@H](CC(N)=O)NC(=O)[C@H](CCC(N)=O)NC(=O)CNC(=O)[C@@H](NC(=O)[C@H](CCCCN)NC(=O)[C@H](CCC(=O)O)NC(=O)[C@@H](NC(=O)[C@H](CCCCN)NC(=O)[C@H](CCCCN)NC(=O)[C@H](Cc1ccccc1)NC(=O)[C@H](CC(C)C)NC(=O)[C@H](CCCCN)NC(=O)[C@H](Cc1c[nH]c2ccccc12)NC(=O)[C@H](CCCCN)NC(C)=O)[C@@H](C)CC)C(C)C)[C@@H](C)CC)C(=O)N[C@H](C(=O)N[C@@H](CCCCN)C(=O)N[C@@H](C)C(=O)NCC(=O)N1CCC[C@H]1C(=O)N[C@@H](C)C(=O)N[C@H](C(=O)N[C@@H](C)C(=O)N[C@@]1(C)CCC/C=C\CCC[C@@](C)(C(=O)N[C@H](C(=O)N[C@@H](CCC(N)=O)C(=O)N[C@H](C(=O)N[C@@H](C)C(=O)N[C@@H](CCCCN)C(N)=O)[C@@H](C)CC)[C@@H](C)O)NC(=O)[C@H](CCC(N)=O)NC(=O)CNC(=O)[C@H](C(C)C)NC1=O)C(C)C)[C@@H](C)CC` (Ac-KWKLFKKIEKVGQNIRDGIIKAGPAVA[S5]VGQ[S5]TQIAK-NH2; staple (Z) 28-32), the MIC in data set [5] is less than 0.78 µM; in data set [6] it was 1.56 µM (≈ 6.44 µg/mL); in data set [2], 3.13 µM (≈ 12.9 µg/mL); in data set [7], 6.25 µM (≈ 25.8 µg/mL); in [3] it was 6.25 µM (≈ 25.8 µg/mL); in data set [4], 3.13 µM (≈ 12.9 µg/mL). For the same compound, the figures for the MIC in data set [8], in [9] and in [10] were 6.25 µM (≈ 25.8 µg/mL), 25 µM (≈ 103 µg/mL) and more than 100 µM, respectively.

Consider `CC[C@H](C)[C@H](NC(=O)CNC(=O)[C@H](CC(=O)O)NC(=O)[C@H](CCCNC(=N)N)NC(=O)[C@@H](NC(=O)[C@H](CC(N)=O)NC(=O)[C@H](CCC(N)=O)NC(=O)CNC(=O)[C@@H](NC(=O)[C@H](CCCCN)NC(=O)[C@H](CCC(=O)O)NC(=O)[C@@H](NC(=O)[C@H](CCCCN)NC(=O)[C@H](CCCCN)NC(=O)[C@H](Cc1ccccc1)NC(=O)[C@H](CC(C)C)NC(=O)[C@H](CCCCN)NC(=O)[C@H](Cc1c[nH]c2ccccc12)NC(=O)[C@H](CCCCN)NC(C)=O)[C@@H](C)CC)C(C)C)[C@@H](C)CC)C(=O)N[C@H](C(=O)N[C@@H](CCCCN)C(=O)N[C@@H](C)C(=O)NCC(=O)N1CCC[C@H]1C(=O)N[C@@H](C)C(=O)N[C@H](C(=O)N[C@@H](C)C(=O)N[C@H](C(=O)N[C@H](C(=O)NCC(=O)N[C@@H](CCC(N)=O)C(=O)N[C@@]1(C)CCC/C=C/CCC[C@@](C)(C(=O)N[C@@H](CCCCN)C(N)=O)NC(=O)[C@H]([C@@H](C)CC)NC(=O)[C@H](CCC(N)=O)NC(=O)[C@H]([C@@H](C)O)NC1=O)C(C)C)C(C)C)C(C)C)[C@@H](C)CC` (Ac-KWKLFKKIEKVGQNIRDGIIKAGPAVAVVGQ[S5]TQI[S5]K-NH2; staple (E) 32-36), for which the MIC in [5] is less than 0.78 µM; in data set [6], less than 0.78 µM; in data set [2], 3.13 µM (≈ 13 µg/mL); in data set [7], 3.13 µM (≈ 13 µg/mL); in data set [3], 6.25 µM (≈ 26 µg/mL); in data set [4], 1.56 µM (≈ 6.48 µg/mL). In addition, the MIC is 3.13 µM (≈ 13 µg/mL) in [8], 25 µM (≈ 104 µg/mL) in data set [9] and more than 100 µM in [10].

`CC[C@H](C)[C@H](NC(=O)CNC(=O)[C@H](CC(=O)O)NC(=O)[C@H](CCCNC(=N)N)NC(=O)[C@@H](NC(=O)[C@H](CC(N)=O)NC(=O)[C@H](CCC(N)=O)NC(=O)CNC(=O)[C@@H](NC(=O)[C@H](CCCCN)NC(=O)[C@H](CCC(=O)O)NC(=O)[C@@H](NC(=O)[C@H](CCCCN)NC(=O)[C@H](CCCCN)NC(=O)[C@H](Cc1ccccc1)NC(=O)[C@H](CC(C)C)NC(=O)[C@H](CCCCN)NC(=O)[C@H](Cc1c[nH]c2ccccc12)NC(=O)[C@H](CCCCN)NC(C)=O)[C@@H](C)CC)C(C)C)[C@@H](C)CC)C(=O)N[C@H](C(=O)N[C@@H](CCCCN)C(=O)N[C@@H](C)C(=O)NCC(=O)N1CCC[C@H]1C(=O)N[C@@]1(C)CCC/C=C\CCC[C@@](C)(C(=O)NCC(=O)N[C@@H](CCC(N)=O)C(=O)N[C@@H](C)C(=O)N[C@H](C(=O)N[C@@H](CCC(N)=O)C(=O)N[C@H](C(=O)N[C@@H](C)C(=O)N[C@@H](CCCCN)C(N)=O)[C@@H](C)CC)[C@@H](C)O)NC(=O)[C@H](C(C)C)NC(=O)[C@H](C)NC(=O)[C@H](C(C)C)NC1=O)[C@@H](C)CC` (Ac-KWKLFKKIEKVGQNIRDGIIKAGP[S5]VAV[S5]GQATQIAK-NH2; staple (Z) 25-29): the Activity result in data set [1] is reported as “Non-toxic”. Also, the MIC was less than 0.78 µM in data set [5]; 1.56 µM (≈ 6.44 µg/mL) in [6]; 3.13 µM (≈ 12.9 µg/mL) in data set [2]; 6.25 µM (≈ 25.8 µg/mL) in data set [7]; 6.25 µM (≈ 25.8 µg/mL) in data set [3]; 3.13 µM (≈ 12.9 µg/mL) in data set [4]. Further, the MIC is 3.13 µM (≈ 12.9 µg/mL) in data set [8], 25 µM (≈ 103 µg/mL) in data set [9] and more than 100 µM in [10].

As for `CC[C@H](C)[C@H](NC(=O)CNC(=O)[C@H](CC(=O)O)NC(=O)[C@H](CCCNC(=N)N)NC(=O)[C@@H](NC(=O)[C@H](CC(N)=O)NC(=O)[C@H](CCC(N)=O)NC(=O)CNC(=O)[C@@H](NC(=O)[C@H](CCCCN)NC(=O)[C@H](CCC(=O)O)NC(=O)[C@@H](NC(=O)[C@H](CCCCN)NC(=O)[C@H](CCCCN)NC(=O)[C@H](Cc1ccccc1)NC(=O)[C@H](CC(C)C)NC(=O)[C@H](CCCCN)NC(=O)[C@H](Cc1c[nH]c2ccccc12)NC(=O)[C@H](CCCCN)NC(C)=O)[C@@H](C)CC)C(C)C)[C@@H](C)CC)C(=O)N[C@H](C(=O)N[C@@H](CCCCN)C(=O)N[C@@H](C)C(=O)NCC(=O)N1CCC[C@H]1C(=O)N[C@@H](C)C(=O)N[C@H](C(=O)N[C@@H](C)C(=O)N[C@H](C(=O)N[C@@]1(C)CCC/C=C\CCC[C@@](C)(C(=O)N[C@@H](CCC(N)=O)C(=O)N[C@H](C(=O)N[C@@H](C)C(=O)N[C@@H](CCCCN)C(N)=O)[C@@H](C)CC)NC(=O)[C@H](C)NC(=O)[C@H](CCC(N)=O)NC(=O)CNC1=O)C(C)C)C(C)C)[C@@H](C)CC` (Ac-KWKLFKKIEKVGQNIRDGIIKAGPAVAV[S5]GQA[S5]QIAK-NH2; staple (Z) 29-33), the minimum inhibitory concentration (MIC) in data set [5] is less than 0.78 µM; in data set [6], less than 0.78 µM; in data set [2] it was 1.56 µM (≈ 6.39 µg/mL); in data set [7] it was 3.13 µM (≈ 12.8 µg/mL); in data set [3], 6.25 µM (≈ 25.6 µg/mL); in data set [4] it was 1.56 µM (≈ 6.39 µg/mL). In addition, the minimum inhibitory concentration (MIC) in [8] was 1.5 µM (≈ 6.14 µg/mL); in data set [9], 25 µM (≈ 102 µg/mL); in [10] it was more than 100 µM.

Consider `CC[C@H](C)[C@H](NC(=O)CNC(=O)[C@H](CC(=O)O)NC(=O)[C@H](CCCNC(=N)N)NC(=O)[C@@H](NC(=O)[C@H](CC(N)=O)NC(=O)[C@H](CCC(N)=O)NC(=O)CNC(=O)[C@@H](NC(=O)[C@H](CCCCN)NC(=O)[C@H](CCC(=O)O)NC(=O)[C@@H](NC(=O)[C@H](CCCCN)NC(=O)[C@H](CCCCN)NC(=O)[C@H](Cc1ccccc1)NC(=O)[C@H](CC(C)C)NC(=O)[C@H](CCCCN)NC(=O)[C@H](Cc1c[nH]c2ccccc12)NC(=O)[C@H](CCCCN)NC(C)=O)[C@@H](C)CC)C(C)C)[C@@H](C)CC)C(=O)N[C@H](C(=O)N[C@@H](CCCCN)C(=O)N[C@@H](C)C(=O)NCC(=O)N1CCC[C@H]1C(=O)N[C@@H](C)C(=O)N[C@H](C(=O)N[C@@H](C)C(=O)N[C@H](C(=O)N[C@H](C(=O)NC1(C)CCC/C=C\CCC[C@@](C)(C(=O)N[C@H](C(=O)N[C@@H](C)C(=O)N[C@@H](CCCCN)C(N)=O)[C@@H](C)CC)NC(=O)[C@H]([C@@H](C)O)NC(=O)[C@H](C)NC(=O)[C@H](CCC(N)=O)NC1=O)C(C)C)C(C)C)C(C)C)[C@@H](C)CC` (stereo not given in full) (Ac-KWKLFKKIEKVGQNIRDGIIKAGPAVAVV[ξαMeNle(6-ylidene)]QAT[S5]IAK-NH2; staple (Z) 30-34), for which the Activity result in data set [1] is “Non-toxic”. The results for the MIC in [2], in data set [3] and in data set [4] were 6.25 µM (≈ 25.7 µg/mL), 6.25 µM (≈ 25.7 µg/mL) and 3.13 µM (≈ 12.9 µg/mL), respectively.

As a reminder, the MIC is the smallest concentration in the dilution series that meets the test's criterion for growth inhibition.

The values are drawn from ChEMBL document CHEMBL6115030, “Systematic All-Hydrocarbon Stapling Analysis for Cecropin A Generates a Potent and Stable Antimicrobial Peptide” (J Med Chem, 2025).
